Data published in patent publication EP4778933A1 (Chengdu Hyperway Pharmaceuticals Co., Ltd., priority 2023, dated 2025).

Columns and labels:
GP2D (KRASG12D) = experiment: 3D cell proliferation inhibition test (CellTiter-Glo 3D, 7 days), GP2D; assay type: cell-based; conditions: 168 h, read-out: Inhibitory activity on cell proliferation (IC50) GP2D (KRASG12D)
Protocol: The diluted compounds to be tested were added to 384-well low-adhesion KRAS mutant types (such as GP2D, NCI H358, LoVo, RKN and KP2) of cell culture plates by using a nanoliter pipetting system (LABCYTE, P-0200). Then, the cells were plated and incubated in a 37°C, 5% CO2 incubator for 7 days. Afterward, CellTiter-Glo® 3D reagent was added, and the luminescent values were read by an Envision multifunctional microplate reader (the luminescent signal is proportional to the amount of ATP in the system, and the ATP content directly represents the number of viable cells in the system). Finally, the IC50 values (half-maximal inhibitory concentration) of the compounds were obtained by the XLFIT software using the nonlinear fitting formula.
• a) The diluted compounds to be tested were added to 384-well low-adhesion KRAS mutant types of cell culture plates by using a nanoliter pipetting system. • b) Cells were seeded into the 384-well plates in a) and then centrifuged at 1000 rpm for 1 min at room temperature, with a final DMSO concentration of compound being 0.5%. The plates were then incubated in a 5% CO2 constant-temperature incubator at 37°C for 7 days. • c) CellTiter-Glo® 3D was added to the 384-well cell culture plates in b), shaken in the dark, and incubated at room temperature. • d) The luminescence values were read by using an Envision multifunctional microplate reader.
The IC50 (half-maximal inhibitory concentration) values of the compounds were obtained by using XLFIT software according to the following nonlinear fitting formula: Y = Bottom + (Top−Bottom)/(1+10^(∧)((LogIC50−X)×HillSlope)) [formula] • X: log value of compound concentration. • Y: inhibition rate (%) [formula] • Negative control: DMSO. • Positive control: Medium only.

[1] = In vivo pharmacokinetic test in rats; set-up: species or system SD Rats; conditions: male rats; for F: oral 30 mg/kg vs intravenous; for AUC / Cmax: rat, oral, single dose 30 mg/kg, plasma
Protocol: Each test compound was administered orally once to male […] rats for pharmacokinetic study. The test compounds were prepared on the day of administration. The intravenous administration solvent: 5% DMSO + 10% solutol + 85% saline; and the oral administration solvent: 50 mM sodium citrate (pH 5.0) + 10% captisol. The oral administration was conducted in a dose of 30 mg/kg. The animals were fasted for 10-14 h before oral administration, and the feeding was resumed 4 h after administration. Pharmacokinetic samples were collected through the orbit. The collection time points were: 5 min (intravenous administration), 15 min, 30 min, 1 h, 2 h, 4 h, 6 h, 8 h and 24 h after administration. Three whole blood samples were collected at each time point, with a collection volume of about 0.2 mL, and anticoagulated with sodium heparin. After blood samples were collected, they were immediately placed on ice and centrifuged within 1 h to isolate plasma (centrifugation conditions: 8000 rpm, 1 min, 2-8°C). The collected plasma was stored in a -20°C refrigerator before analysis. The concentrations of compounds in the plasma samples were determined using an LC-MS/MS analysis method. Table 4: Pharmacokinetic test results of some compounds in SD Rats

[2] = system: human colon cancer GP2D mouse xenograft tumors; experiment: In vivo drug efficacy, GP2D subcutaneous xenograft tumor model; set-up: species or system Balb/c nude mouse; conditions: 30 mg/kg, PO; for inhibitory effects on human colon cancer GP2D mouse xenograft tumors: BID, 28 days; for Tumor volume inhibition rate (TGI): GP2D xenograft, BID × 28, day 28
Protocol: A human colon cancer GP2D cell subcutaneous xenograft tumor Balb/c nude mouse model was established. GP2D tumor cells resuspended in DMEM medium were inoculated subcutaneously on the right side of the experimental animal at 1×10^7 + gel/0.1 mL. When the tumor grew to about 150-200 mm^3, administration in groups began, with 5 animals in each group. On the day of the experiment, the animals were given corresponding drugs according to the groups. The first group G1 was set as a solvent group, and 50 mM citrate buffer (pH 5.0) + 10% Captisol was given by gavage alone. The second group G2 was given a 50 mM citrate buffer (pH 5.0) + 10% Captisol of compound 26. The third group G3 was given a 50 mM citrate buffer (pH 5.0) + 10% Captisol of compound 31. Table 5: Study on effect of test substances on animal tumor size in human colon cancer GP2D mouse xenograft tumor model
During the experiment, the body weight and tumor size of the animals were measured twice a week, and the clinical symptoms of the animals were observed and recorded every day. Each drug administration was based on the most recent weighing of the animals.
The tumor was measured with a digital vernier caliper to measure the length (a) and width (b). The tumor volume (TV) was calculated using the following formula: TV = a × b^2 /2. [formula]

| Compound | IC50 (GP2D (KRASG12D)) [nM] | F [1] [%] | AUC ([1]; in vivo) [ng·h/mL] | Cmax ([1]; in vivo) [ng/mL] | inhibitory effects on human colon cancer GP2D mouse xenograft tumors [2] | Tumor volume inhibition rate (TGI) [2] [%] | AUC ([1]; Sprague-Dawley (SD)) [ng·h/mL] | Cmax ([1]; Sprague-Dawley (SD)) [ng/mL] |
| --- | --- | --- | --- | --- | --- | --- | --- | --- |
| CC1(O)COCCN(c2nc(OCC34CCCN3C(c3cc(F)c(F)c(F)c3)CC4)nc3c(F)c(-c4cccc5sc(N)c(C#N)c45)c(Br)cc23)C1 (single isomer, unassigned) [Example 26, 2-amino-4-[6-bromo-8-fluoro-4-(6-hydroxy-6-methyl-1,4-oxazepan-4-yl)-2-({[3-(3,4,5-trifluoropheny 1)-2,3,5,6,7,7a-hexahydro-1H-pyrrolizin-7a-yl]methyl}oxy)quinazolin-7-yl]benzo[b]thiophene-3-carb onitrile] | 2.99 | 22.3 | 12400 | 1190 | significant inhibitory effects | 72.7 |  |  |
| CC1(O)COCCN(c2nc(OCC34CCCN3C(c3cc(F)c(F)c(F)c3)CC4)nc3c(F)c(-c4cccc5sc(N)c(C#N)c45)c(I)cc23)C1 (single isomer, unassigned) [Example 31, 2-amino-4-[6-iodo-8-fluoro-4-(6-hydroxy-6-methyl-1,4-oxazepan-4-yl)-2-({[3-(3,4,5-trifluorophenyl)-2,3,5,6,7,7a-hexahydro-1H-pyrrolizin-7a-yl]methyl}oxy)quinazolin-7-yl]benzo[b]thiophene-3-carbonitrile] | 1.75 | 21.5 |  |  | significant inhibitory effects | 86.7 | 11300 | 1030 |
